Laboratory results reported in patent US5610160A, “Topical 5-fluorouracil prodrug composition and method” (priority 1994, dated 1997).
Values after ≈ are worked out from the molar mass of the structure shown.

Legend:
[1] = Diffusion cell experiments: delivery of 5-FU through hairless mouse skin; format: in vitro ADME; details: for Ji, flux of 5-FU through the skin: from suspensions of prodrugs in IPM, hairless mouse skin; for Cs, amount of 5-FU in the skin: leached from hairless mouse skin in 24 hours subsequent to application of prodrug in vehicle for 48 hours; for Jj, flux of theophylline through the skin after application of the prodrug/formulation (relative damage): theophylline from suspension in PG
Experimental: The diffusion cell experiments were conducted as described by Sloan et al in J. Invest.
^b Flux in mg/cm^2 hour of 5FU from suspensions of prodrugs in
^c Amount of 5FU in mg leached from hairless mouse skin in 24 hours
subsequent to application of prodrug in vehicle for 48 hours.
^d Flux in mg/cm^2 hour of theophylline from suspension in PG.

[2] = Solubility of prodrug in isopropyl myristate (IPM); details: for CIPM, equivalent mg of 5FU/ml: IPM, 23 ± 1° C., value in parentheses; for solubility: isopropyl myristate, organic solvent or mixture
Experimental: The results from the determination of the physicochemical properties are recorded in the tables as CIPM (the saturated solubility of the prodrug in the isopropyl myristate (IPM) vehicle/formulation in which the prodrug was applied to the mouse skins), K (the partition coefficients of the prodrug between IPM and a pH 4.0 acetate buffer) and Cw (the solubility of the prodrug in pH 4.0 acetate buffer calculated from the partition coefficient and the IPM solubility).

[3] = Partition coefficient between IPM and pH 4.0 acetate buffer; format: physicochemical; details: 23 ± 1° C.
Source text: ^a Partition coefficient between IPM and pH 4.0 acetate buffer at 23

[4] = shake-flask, brief shaking, IPM phase analyzed immediately; details: 23 ± 1 °C

Row | Compound | Ji, flux of 5-FU through the skin [1] [mg/cm^2 hour] | Cs, amount of 5-FU in the skin [1] [mg] | Jj, flux of theophylline through the skin after application of the prodrug/formulation (relative damage) [1] [mg/cm^2 hour] | CIPM, equivalent mg of 5FU/ml [2] | solubility [2] [mg/mL] | K, partition coefficient between IPM and pH 4.0 acetate buffer [3] | log partition isopropyl myristate / pH 4.0 acetate buffer [4] [concentration ratio]
1 | CCCC(=O)n1cc(F)c(=O)n(C(=O)CCC)c1=O [Compound 19] | 0.127 | 1.54 | 0.190 | 81.4 equivalent mg of 5FU/ml | 169 (≈ 625 mM) |  | 
2 | CCCCCC(=O)n1cc(F)c(=O)[nH]c1=O [Compound 5] |  | 1.42 |  |  | 25.7 (≈ 113 mM) | 42.9 | 42.9
3 | CCCCC(=O)n1cc(F)c(=O)n(C(=O)CCCC)c1=O [Compound 20] | 0.124 | 1.14 | 0.156 | 154 equivalent mg of 5FU/ml | 352 (≈ 1180 mM) |  | 
4 | CCCCC(=O)n1c(=O)[nH]cc(F)c1=O [Compound 16] | 0.071 | 0.38 |  |  |  | 1.65 | 1.65
5 | CCCCCCCC(=O)n1cc(F)c(=O)[nH]c1=O [Compound 6] | 0.078 | 1.58 | 0.129 | 14.4 equivalent mg of 5FU/ml | 28.4 (≈ 111 mM) |  | 
6 | CCC(=O)n1cc(F)c(=O)[nH]c1=O [Compound 2] | 0.560 | 8.96 | 0.219 |  | 6.77 (≈ 36.4 mM) | 0.764 | 0.764
7 | CC(=O)n1cc(F)c(=O)[nH]c1=O [Compound 1] | 1.213 | 8.85 | 0.296 |  | 3.8 (≈ 22.1 mM) | 0.185 | 0.185
8 | CCCC(=O)n1cc(F)c(=O)[nH]c1=O [Compound 3] | 0.168 | 1.07 | 0.185 |  | 3.48 (≈ 17.4 mM) | 2.69 | 2.69
9 | CCC(=O)n1cc(F)c(=O)n(C(=O)CC)c1=O [Compound 18] | 0.090 | 0.51 | 0.288 |  | 17.4 (≈ 71.8 mM) | 33.8 | 33.8
10 | CCCCCCCCOC(=O)n1cc(F)c(=O)[nH]c1=O [Compound 12] | 0.037 | 0.41 | 0.323 | 4.72 equivalent mg of 5FU/ml | 10.4 (≈ 36.3 mM) |  | 
